Measurements reported in paper PMC6520443, “Molecular Fingerprints for a Novel Enzyme Family in Actinobacteria with Glucosamine Kinase Activity” (mBio, 2019).

How the values were obtained:
SjGlcNK = molecular target: T1, SjGlcNK (Streptacidiphilus jiangxiensis, UniProt A0A1H7TQR5); test: kinase kinetics, Michaelis-Menten fit; type: biochemical; conditions: co-substrate ATP
T1 construct: gene SAMN05414137_114149; recombinant, E. coli BL21(DE3), nickel NTA and size exclusion; monomer in solution; C-lobe residues 194-438
T1 sequence (A0A1H7TQR5 1-438): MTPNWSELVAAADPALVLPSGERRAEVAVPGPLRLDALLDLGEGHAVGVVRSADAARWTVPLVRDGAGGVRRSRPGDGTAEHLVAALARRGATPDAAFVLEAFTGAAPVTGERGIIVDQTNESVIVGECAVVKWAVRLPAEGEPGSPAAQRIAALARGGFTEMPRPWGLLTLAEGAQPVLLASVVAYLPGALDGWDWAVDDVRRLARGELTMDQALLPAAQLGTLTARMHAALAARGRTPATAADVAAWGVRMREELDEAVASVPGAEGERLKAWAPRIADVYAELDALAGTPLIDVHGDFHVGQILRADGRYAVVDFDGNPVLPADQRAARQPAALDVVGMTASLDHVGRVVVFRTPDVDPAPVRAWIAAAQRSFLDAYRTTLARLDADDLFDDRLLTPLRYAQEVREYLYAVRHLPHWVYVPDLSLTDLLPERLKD

MvMak = molecular target: T2, MvMak (Mycolicibacterium austroafricanum, UniProt A1TH50); test: ADP-Glo kinase assay, relative activity; type: biochemical; conditions: 5 mM sugar, 1 mM ATP, 2 μM enzyme, room temperature, 5 min
T2 construct: gene mak; recombinant, produced as previously described
T2 sequence (A1TH50 whole entry): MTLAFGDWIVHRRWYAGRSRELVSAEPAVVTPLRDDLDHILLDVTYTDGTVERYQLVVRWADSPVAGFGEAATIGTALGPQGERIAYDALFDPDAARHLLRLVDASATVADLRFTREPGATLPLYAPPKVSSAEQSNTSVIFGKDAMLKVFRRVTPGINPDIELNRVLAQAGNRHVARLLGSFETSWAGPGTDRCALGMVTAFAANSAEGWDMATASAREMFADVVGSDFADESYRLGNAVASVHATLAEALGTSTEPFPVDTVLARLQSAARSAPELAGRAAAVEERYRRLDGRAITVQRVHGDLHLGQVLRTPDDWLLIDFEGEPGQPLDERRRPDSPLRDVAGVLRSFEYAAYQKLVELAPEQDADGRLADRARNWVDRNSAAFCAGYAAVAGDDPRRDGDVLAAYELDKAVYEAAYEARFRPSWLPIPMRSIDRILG

| Km (SjGlcNK) [mM] | SMILES | ADP-Glo kinase assay, relative activity (MvMak) |
| --- | --- | --- |
| > 100 | OC[C@H]1OC(O)[C@H](O)[C@@H](O)[C@@H]1O (some centres unmarked) [glucose] | – |
| – | OC[C@H]1O[C@H](O[C@H]2[C@H](O)[C@@H](O)C(O)O[C@@H]2CO)[C@H](O)[C@@H](O)[C@@H]1O (some centres unmarked) [maltose] | MvMak uses exclusively maltose as the substrate acceptor |
